From PMC4648260 (Chembiochem : a European journal of chemical biology, 2015) come the findings set out here.

Molecules are shown by their SMILES.

Experiment [1] deals with T1, RhlR (Pseudomonas aeruginosa, UniProt P54292). In kind it is cell-based. The conditions noted are these: for EC50: read-out: EC50 (RhlR agonism), E. coli reporter, dose-response 100 nM – 1 mM; for RhlR-agonistic selectivity over LasR and QscR: criterion: at least 2.5-fold more active in RhlR agonism assays than in LasR and QscR agonism assays at 100 μM.
T1 sequence (P54292 whole entry): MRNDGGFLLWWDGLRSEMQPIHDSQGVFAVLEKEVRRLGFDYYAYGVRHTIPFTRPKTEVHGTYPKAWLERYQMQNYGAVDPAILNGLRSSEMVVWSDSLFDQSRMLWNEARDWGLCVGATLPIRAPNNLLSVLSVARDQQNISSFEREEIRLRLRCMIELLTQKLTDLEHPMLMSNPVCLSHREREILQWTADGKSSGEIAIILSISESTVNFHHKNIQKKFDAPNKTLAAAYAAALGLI
The next experiment deals with LasR (Pseudomonas aeruginosa, UniProt P25084). Kind of experiment: LasR antagonism. Type of experiment: cell-based. The conditions noted are these: compound at 100 μM against 2 nM OdDHL; untreated culture set to 100%; negative values indicate receptor agonism; error ±10%.
LasR, sequence (P25084 whole entry): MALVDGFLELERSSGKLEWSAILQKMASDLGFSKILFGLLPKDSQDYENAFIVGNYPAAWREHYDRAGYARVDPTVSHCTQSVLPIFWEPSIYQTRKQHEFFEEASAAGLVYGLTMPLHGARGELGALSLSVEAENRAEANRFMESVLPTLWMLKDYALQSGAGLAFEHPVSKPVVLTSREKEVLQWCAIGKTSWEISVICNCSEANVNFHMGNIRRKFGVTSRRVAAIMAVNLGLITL
Experiment [2] has as its target T1, RhlR. Type of experiment: cell-based. The conditions noted are these: E. coli reporter; for Inhibition (%) / % RhlR inhibition: compound at 100 μM in the presence of 10 μM BHL, untreated culture set to 100%, error ±10%, selected data reproduced from ref. [23].
The target of a further experiment is QscR (Pseudomonas aeruginosa, UniProt G3XD77). The conditions noted are these: compound at 100 μM against 15 nM OdDHL; untreated culture set to 100%; error ±10%.
Experiment [3] deals with T1, RhlR. Kind of experiment: RhlR agonism, P. aeruginosa GFP reporter strain PAO-JP2/prhlI-LVAgfp. The conditions noted are these: compound at 100 μM in the presence of 100 nM OdDHL, 900 μM BHL set to 100% activation, error ±10%, selected data reproduced from ref. [23]. In kind it is cell-based.
The target of experiment [4] is T1, RhlR. The experiment is described as follows: RhlR antagonism. In kind it is cell-based.

As to `CCCC(=O)N[C@H]1CCOC1=O` [BHL, N-butanoyl L-homoserine lactone, reference compound], the EC50 at RhlR [1] was 11.1 µM.
For `O=C(Cc1ccccc1)N[C@@H]1CCOC1=O` [Compound B4], the “% LasR inhibition” value at LasR is given as 15%. The “Inhibition (%) / % RhlR inhibition” value at RhlR [2] is 66%. In addition, at QscR, the “% QscR inhibition” value stood at 37%.
As to `O=C(Cc1ccccc1)NC1CCOC1=O` (stereo not drawn) [Compound C1], at RhlR [1], the “RhlR-agonistic selectivity over LasR and QscR” value (shortened to “RhlR-agonistic selectivity”) is listed as “displayed selectivity”; the 50% effective concentration (EC50) was 14.7 µM. Further, at RhlR [3], the “% RhlR activation” value is on record as 53%.
For `O=C(Cc1ccc(F)cc1)NC1CCOC1=O` (stereo not drawn) [Compound C2], on RhlR [1], the “RhlR-agonistic selectivity” value was “displayed selectivity”; the EC50 was 9 µM. The “% RhlR activation” value on RhlR [3] is 28%.
Take `O=C(Cc1cccc(F)c1)NC1CCOC1=O` (stereo not drawn) [Compound C3]: at RhlR [1], the “RhlR-agonistic selectivity” value was “displayed selectivity”. Besides, the “% RhlR activation” value at RhlR [3] was determined as 28%.
Regarding `O=C(Cc1ccccc1F)N[C@H]1CCOC1=O` [Compound C4], the “RhlR-agonistic selectivity” value on RhlR [1] is listed as “displayed selectivity”. Moreover, the “% RhlR activation” value on RhlR [3] was 24%.
`O=C(Cc1cccc(Cl)c1)NC1CCOC1=O` (stereo not drawn) [Compound C6]: at RhlR [1], the “RhlR-agonistic selectivity” value is reported as “displayed selectivity”; the EC50 was determined as 5.5 µM. The “% RhlR activation” value on RhlR [3] turned out to be 26%.
As for `O=C(Cc1ccc(I)cc1)N[C@H]1CCOC1=O` [Compound C10], the “% LasR inhibition” value at LasR is on record as 58%. Besides, the “Maximum RhlR inhibition” value on RhlR [2] (antagonism dose curves, highest concentrations tested) is listed as “near complete RhlR inhibition”. Moreover, the “Inhibition (%) / % RhlR inhibition” value at RhlR [2] came out at 84%. Also, the “% QscR inhibition” value on QscR is listed as −79%.
On to `O=C(Cc1ccccc1I)NC1CCOC1=O` (stereo not drawn) [Compound C12], for which, at RhlR [1], the “RhlR-agonistic selectivity” value is given as “displayed selectivity”. In addition, the “% RhlR activation” value on RhlR [3] was determined as 11%.
As to `CSc1cccc(CC(=O)N[C@H]2CCOC2=O)c1` [Compound E7], the EC50 at RhlR [1] was found to be 6.6 µM.
On to `O=C(Cc1ccc2ccccc2c1)NC1CCOC1=O` (stereo not drawn) [Compound E12], for which, at LasR, the “% LasR inhibition” value was 81%. In addition, the “Inhibition (%) / % RhlR inhibition” value on RhlR [2] is listed as 77%. The “% QscR inhibition” value at QscR was determined as 60%.
`O=C(COc1ccc(I)cc1)N[C@H]1CCOC1=O` [Compound E22]: the “% LasR inhibition” value on LasR is reported as −9%. In addition, on RhlR [2], the “Inhibition (%) / % RhlR inhibition” value was 74%. Moreover, at QscR, the “% QscR inhibition” value is recorded as 18%. At RhlR [4] (IC50 67.2 μM in P. aeruginosa vs 17.3 μM in E. coli), the “fold reduction in potency, P. aeruginosa vs E. coli” value is reported as ~ 4 fold. The “% RhlR inhibition” value at RhlR [4] (P. aeruginosa reporter, compound at 100 μM against 30 μM BHL in the presence of 100 nM OdDHL, cells with 100 nM OdDHL alone set to 100% inhibition, error ±10%) was 92%.
For `O=C(CCc1ccccc1)NC1CCOC1=O` (stereo not drawn) [Compound E30], the EC50 at RhlR [1] came to 6.6 µM.

By EC50 is commonly meant the concentration needed to bring the measured effect to its halfway point.
